Laboratory results published in paper PMC5048338, “Discovery of 4,6-disubstituted pyrimidines as potent inhibitors of the heat shock factor 1 (HSF1) stress pathway and CDK9” (Medchemcomm, 2016).
Read-outs that look alike come from different tables or passages of the source.

Key:
[1] = target: CDK2/cyclinE (Homo sapiens, UniProt P24941); experiment: CDK2 enzyme assay: off-chip mobility shift assay; type: biochemical; set-up: purchased Upstate/Millipore; conditions: for IC50: biochemical, CDK2/cyclinE, average of two determinations; for fold improvement in CDK2 inhibition / fold drop in potency in the CDK2 assay: relative to compound 3
Method: CDK2 enzyme assay: Off-chip Mobility SHIFT Assay
All reagents were purchased from Sigma-Aldrich unless otherwise specified. Inhibition of CDK2/cyclinE activity was quantified using an off-chip incubation, mobility shift assay, which uses a microfluidic chip (Caliper Life Sciences) to measure the conversion of a fluorescent peptide substrate to phosphorylated product. An Off-chip Mobility Shift Chip with 12 sippers (Caliper Life Sciences) was prepared for use according to the manufacturer’s instructions using Coating Reagent #3 (Caliper Life Sciences). The off-chip incubation was carried out in white, 384-well, flat bottom, low volume assay plates (Greiner). 5 µL peptide mix (1.5 µM substrate peptide (fluorescein-QSPKKG-CONH2, Bachem) and 90 µM ATP in kinase base buffer (50 mM HEPES, pH7.5 (Calbiochem), 0.06% CHAPSO)) were added to each well of the prepared compound plates which contained 120 nL compound stock solution per well. The reaction was then initiated by the addition of 6 µL enzyme mix (1.0 nM CDK2/cyclin E (Upstate/Millipore), 1.0 mM DTT and 5.0 mM MgCl2 in kinase base buffer). After incubation for 60 min at room temperature, each reaction was terminated by the addition of 10µL of stop solution containing 100 mM HEPES pH 7.5 (Calbiochem), 0.033% Brij-35, 0.22% Coating Reagent #3 (Caliper Life Sciences), 44 mM EDTA and 5 % DMSO. Reaction products were analysed using a Caliper LabChip LC3000 instrument and peak height was used to calculate percentage conversion of substrate to product.
For compound response testing, a 12 point compound concentration range was used. Compounds were acoustically dosed (Echo 555; Labcyte) into assay-ready plates using 11 half log intervals from 100 μM to […] plus a 12th point at 0.01 μM. Each well was backfilled with the required volume up to 120 nL of 100% DMSO to ensure a final 1% v/v DMSO concentration in the assay. In addition to the compound test wells, each plate carried maximum and minimum controls. Staurosporine at 10 μM was used to inhibit CDK2 activity for the minimum control. As a maximum control, 120 nL pure DMSO was added to the wells. Each plate contained at least 11 randomly distributed maximum and minimum controls. After the addition of compounds to the assay plates, the assay was performed as detailed above. Percentage conversion of substrate to product was used to calculate the effect of each compound on the kinase activity of CDK2/cyclinE. Enzyme inhibition model 3, non-linear curve fit analysis within OriginLab™ software was used to fit dose response curves and estimate the […]
concentration of compound required to reduce the enzyme activity to 50% of the conversion calculated from an average of the maximum controls.
Cell-based ELISA (Cellisa) for HSP72 expression
To follow HSP72 protein expression, a product of HSF1 transcriptional activity, Cellisa was developed. Cells (5-8x10^4cells/ml) were seeded into 96-well plates and incubated at 37 °C for 48 h.
Compounds were then added at a range of concentrations and incubated for 1 h before addition of 17-AAG (250 nM). Cells were then incubated for 18 h. The medium was removed and cells were fixed with fixing solution (4% paraformaldehyde, 0.3% TritonX-100 in PBS) for 30 min at 4 °C. The plates were then washed with 0.1% Tween-20/deionised water before blocking with 5% milk for 30 min at 37 °C. After washing the plates, HSP72 antibody (SPA-810, Enzo Life) was added for 1.5 h at 37 °C.
Following 4 x washes, the plates were incubated with europium-labelled anti-mouse antibody (0.6ug/ml) in Delfia assay buffer (Perkin Elmer) for 1 h at 37 °C. After washing the plates, Delfia enhancement solution was added, shaken for 10 min before reading in the Envision plate reader (Perkin-Elmer) with excitation at 340 nm and emission at 615 nm. The plates were washed again before protein determination using the BCA assay. The europium counts were normalised for the amount of protein in each well. The 50% inhibitory concentration value of the compound was then calculated and presented. […]

[2] = test system: HSF1-stress pathway; experiment: ArrayScan HSP72 protein assay (HSF1-stress pathway inhibition, 17-AAG induced); conditions: for IC50: Homo sapiens, U2OS, read-out: HSF1 IC50; for fold increase in HSF1-stress pathway inhibition / fold drop in potency in the HSF1-stress pathway assay: relative to compound 3
Method: To discover inhibitors of the HSF1-stress pathway, we employed an automated cellular imaging and analysis method (ArrayScan™) that quantifies the ability of a compound to suppress the expression of the HSF1-mediated inducible HSP70 isoform, HSP72.
U2OS cells (1500 per well) were plated in 40 μL of DMEM media (containing 10% fetal calf serum and 2 mM Glutamax T-1) in costar 384-well plates and left overnight at 37 °C and 5% CO2 to adhere.
treatment with compound, all wells except min wells were dosed with 17AAG diluted in DMSO (10
°C and 5% CO2. The following day the cells were fixed by addition of 20 μL/well of 12% formaldehyde with 1:1700 Hoechst in PBS for 10 min at room temperature. The fixative was decanted and the wells washed once with 50 μL of phosphate buffer saline (PBS).The PBS was subsequently aspirated, and the cells were permeabilized by addition of 20 μL/well of PBS 0.3% Triton X-100 for 20 min at room temperature. The wells were then washed with 80 μL of PBS prior to the addition of 20 μL of combined primary and secondary antibodies diluted in PBS (1:10 000 mouse anti-Hsp72
11001 molecular probes), for 2 h at room temperature. The wells were then washed with 50 μL of PBS. Finally, 50 μL of PBS was added to each well, and the plates were sealed ready to analyze.
Analysis was carried out using a Cellomics Arrayscan VTI instrument and the Cellomics Arrayscan Compartmental Analysis algorithm to measure cellular levels of HSP72.
100 μM to 0.1 μM plus a 12th point at 0.01 μM. Each well was backfilled with the required volume up to 120 nL of 100% DMSO to ensure a final 1% v/v DMSO concentration in the assay. In addition to the compound test wells, each plate carried maximum and minimum controls. Staurosporine at 10 μM was used to inhibit CDK2 activity for the minimum control. As a maximum control, 120 nL pure DMSO was added to the wells. Each plate contained at least 11 randomly distributed maximum and minimum controls. After the addition of compounds to the assay plates, the assay was performed as detailed above. Percentage conversion of substrate to product was used to calculate the effect of each compound on the kinase activity of CDK2/cyclinE. Enzyme inhibition model 3, non-linear curve fit analysis within OriginLab™ software was used to fit dose response curves and estimate the

[3] = test system: U2OS cells; experiment: SRB cell growth inhibition assay; type: cell-based; conditions: Homo sapiens, 96 h, read-out: SRB GI50
[4] = test system: HSF1-mediated HSP72 induction; experiment: Cell-based ELISA (Cellisa) for HSP72 expression; conditions: Homo sapiens, U2OS, read-out: HSF1 IC50 (cell-ELISA, HSP72 induction inhibition)
[5] = target: T1, CDK9/cyclin T1 (Homo sapiens, UniProt P50750); experiment: EMD Millipore (Eurofins) CDK panel; type: biochemical; conditions: EMD Millipore screening panel, N = 1
T1 construct: purchased EMD Millipore screening panel (now Eurofins)
T1 sequence (P50750 whole entry): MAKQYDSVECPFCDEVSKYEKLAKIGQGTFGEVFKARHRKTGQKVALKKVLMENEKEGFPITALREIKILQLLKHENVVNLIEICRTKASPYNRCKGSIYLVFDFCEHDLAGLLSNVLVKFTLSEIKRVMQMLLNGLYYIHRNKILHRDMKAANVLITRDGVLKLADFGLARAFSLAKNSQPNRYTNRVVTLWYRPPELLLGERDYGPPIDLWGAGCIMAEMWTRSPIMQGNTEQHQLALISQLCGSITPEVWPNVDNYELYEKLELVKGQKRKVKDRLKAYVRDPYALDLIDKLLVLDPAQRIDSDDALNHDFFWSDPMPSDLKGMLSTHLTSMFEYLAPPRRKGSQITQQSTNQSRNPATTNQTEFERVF
T1 sequence (O60563 whole entry partner): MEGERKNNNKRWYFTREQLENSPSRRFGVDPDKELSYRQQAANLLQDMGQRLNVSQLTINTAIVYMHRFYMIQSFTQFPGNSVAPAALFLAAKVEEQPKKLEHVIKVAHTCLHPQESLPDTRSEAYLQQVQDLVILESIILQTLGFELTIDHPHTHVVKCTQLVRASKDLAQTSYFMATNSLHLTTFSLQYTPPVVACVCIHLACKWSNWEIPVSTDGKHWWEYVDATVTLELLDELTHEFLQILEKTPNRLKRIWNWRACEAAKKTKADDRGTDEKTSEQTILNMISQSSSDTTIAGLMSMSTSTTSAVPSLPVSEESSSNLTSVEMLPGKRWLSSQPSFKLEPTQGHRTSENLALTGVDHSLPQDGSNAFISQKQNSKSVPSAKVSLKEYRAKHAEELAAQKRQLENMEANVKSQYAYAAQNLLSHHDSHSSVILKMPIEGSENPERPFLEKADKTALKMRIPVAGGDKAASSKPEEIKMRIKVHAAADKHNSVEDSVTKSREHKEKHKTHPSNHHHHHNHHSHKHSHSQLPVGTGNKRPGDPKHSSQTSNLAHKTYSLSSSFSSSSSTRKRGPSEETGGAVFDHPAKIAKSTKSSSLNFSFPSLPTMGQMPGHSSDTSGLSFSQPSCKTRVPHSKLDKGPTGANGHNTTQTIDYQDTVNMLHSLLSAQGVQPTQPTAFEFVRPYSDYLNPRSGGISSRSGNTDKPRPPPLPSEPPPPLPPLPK
Method: Therefore 4,6-pyrimidine 3 was submitted to a EMD Millipore CDK panel to assess potency across the selected CDK family members (Table 3). Modest activity was observed against several CDKs; […]. […]. page 4: […]
(§1) mM Mg Acetate and [9-33P]-ATP (specific activity approx. 500 cpm/pmol, concentration as required). The reaction is initiated by the addition of the MgATP mix. After incubation for 40 minutes at room temperature, the reaction is stopped by the addition of 3% phosphoric acid solution. 10 μL of the reaction is then spotted onto a P30 filtermat and washed three times for 5 minutes in 75 mM phosphoric acid and once in methanol prior to drying and scintillation counting. […]
CDK9/cyclinT1 (h) is incubated with 8 mM MOPS pH 7.0, 0.2 mM EDTA, 100 μM […]
, 10 mM MgAcetate and […]
as §1, with “(specific” for “mM Mg Acetate and [9-33P]-ATP (specific”

[6] = test system: CDK9/CyclinT1; experiment: Adapta screen assay, Life Technologies; conditions: ratio between CDK2/7/9, below limit of assay detection
[7] = test system: CDK7/CyclinH/MAT1; conditions: ratio between CDK2/7/9; ref Yin et al., Mol. Cancer Ther., 2014, 13, 1442-1456; cited from earlier work
[8] = test system: CDK9/CyclinT1; conditions: ratio between CDK2/7/9; ref Yin et al., Mol. Cancer Ther., 2014, 13, 1442-1456; cited from earlier work

Row | IC50 [1] | IC50 [2] | Compound | other results
1 | 161 nM | 28 nM | CN(C)CCOc1ccc(Nc2cc(-n3cnc4ncccc43)ncn2)nc1 [Compound 11] | fold improvement in CDK2 inhibition [1]: 5 fold; fold increase in HSF1-stress pathway inhibition [2]: 3 fold
2 | 836 nM | 1380 nM | C[C@H]1CN(C)CCN1c1ccc(Nc2cc(-n3cnc4ccccc43)ncn2)nc1 [Compound 22] | –
3 | 554 nM | 295 nM | c1ccc2c(c1)ncn2-c1cc(Nc2ccc(OCCN3CCOCC3)cn2)ncn1 [Compound 18] | –
4 | 20000 nM | 1350 nM | CN(C)CCOc1ccc(Nc2cc(-n3cnc4ccccc43)ncn2)cc1 [Compound 2] | fold difference in activity between the CDK2 and HSF1-stress pathway assays ([2]; CDK2 IC50 versus HSF1 IC50): 15 fold
5 | 121 nM | 39 nM | Cc1ccc2ncn(-c3cc(Nc4ccc(OCCN(C)C)cn4)ncn3)c2c1 [Compound 12] | –
6 | 1240 nM | 884 nM | CN1CCC(Oc2ccc(Nc3cc(-n4cnc5ccccc54)ncn3)nc2)CC1 [Compound 20] | –
7 | 29800 nM | > 30000 nM | CN(C)CCOc1ccc(Nc2cc(-n3ncc4ccccc43)ncn2)nc1 [Compound 7] | –
8 | 368 nM | 165 nM | CN(C)CCCOc1ccc(Nc2cc(-n3cnc4ccccc43)ncn2)nc1 [Compound 4] | –
9 | 1140 nM | 2000 nM | OCCc1ccc(Nc2cc(-n3cnc4ccccc43)ncn2)cc1 [Compound 1] | –
10 | 1600 nM | 760 nM | CN(C)CCOc1ccc(Nc2cc(-n3cnc4cccnc43)ncn2)nc1 [Compound 10] | –
11 | – | – | CC(C)(C)c1cnc(CSc2cnc(NC(=O)C3CCNCC3)s2)o1 [SNS-032, reference compound] | GI50 ([3]; U2OS): 370 nM; IC50 [4]: 750 nM
12 | 358 nM | 57 nM | c1ccc2c(c1)ncn2-c1cc(Nc2ccc(OCCN3CCCCC3)cn2)ncn1 [Compound 19] | IC50 [5]: 8 nM; fold increase in HSF1-stress pathway inhibition [2]: 2 fold
13 | 690 nM | 198 nM | CN(C)CCCc1ccc(Nc2cc(-n3cnc4ccccc43)ncn2)nc1 [Compound 15] | –
14 | 643 nM | 450 nM | CN1CCN(c2ccc(Nc3cc(-n4cnc5ccccc54)ncn3)nc2)CC1 [Compound 21] | IC50 [5]: 22 nM
15 | 55 nM | 15 nM | c1cnc2ncn(-c3cc(Nc4ccc(OCCN5CCCCC5)cn4)ncn3)c2c1 [Compound 25] | GI50 ([3]; U2OS cells, single agent, average of two determinations): 5 nM; ratio of activity CDK9/CyclinT1 [6]: 1; IC50 [4]: 15 nM
16 | 59 nM | 842 nM | c1ccc(Nc2cc(-n3cnc4ccccc43)ncn2)nc1 [Compound 14] | fold improvement in CDK2 inhibition [1]: 10 fold; fold drop in potency in the HSF1-stress pathway assay [2]: 10 fold
17 | 7100 nM | 6150 nM | CN(C)CCOc1ccc(Nc2cc(-n3ccnc3)ncn2)nc1 [Compound 6] | IC50 [5]: 88 nM; fold drop in potency in the CDK2 assay [1]: 12 fold; fold drop in potency in the HSF1-stress pathway assay [2]: 77 fold
18 | 4610 nM | 4280 nM | Cc1nc2ccccc2n1-c1cc(Nc2ccc(OCCN(C)C)cn2)ncn1 [Compound 13] | fold drop in potency in the CDK2 assay [1]: > 7 fold; fold drop in potency in the HSF1-stress pathway assay [2]: > 7 fold
19 | 535 nM | – | CN1CCC[C@H]1COc1ccc(Nc2cc(-n3cnc4ccccc43)ncn2)nc1 [Compound 16] | –
20 | – | – | CC(C)c1c2cc(-c3ccnc(NC4CCC(NC5CCOCC5)CC4)n3)ccc2nn1C (stereo not drawn) [LY2857785] | ratio of activity CDK7/CyclinH/MAT1 [7]: 22; ratio of activity CDK9/CyclinT1 [8]: 1
21 | 4430 nM | 2330 nM | CN(C)CCOc1ccc(Nc2cc(-n3ccc4ccccc43)ncn2)nc1 [Compound 8] | –
22 | > 100000 nM | 17600 nM | CN(C)CCOc1ccc(Nc2cc(-c3cnc4ccccc4c3)ncn2)nc1 [Compound 9] | activity in the CDK2 assay ([1]; compared to benzimidazole 3): inactive; fold drop in potency in the HSF1-stress pathway assay [2]: ~200 fold
23 | 776 nM | 610 nM | CN(C)C1CCN(c2ccc(Nc3cc(-n4cnc5ccccc54)ncn3)nc2)CC1 [Compound 23] | –
24 | 146 nM | – | CN1CCC[C@H]1COc1ccc(Nc2cc(-n3cnc4ncccc43)ncn2)nc1 [Compound 24] | –

Row | Compound | IC50 [1] | IC50 [2] | other results
25 | CN1CCC[C@@H]1COc1ccc(Nc2cc(-n3cnc4ccccc43)ncn2)nc1 [Compound 17] | 492 nM | – | IC50 [5]: 8 nM
